In series [1] the test system is MCPP-induced Hypolocomotion. Kind of series: Reversal of MCPP-induced hypolocomotion. It counts as in vivo. Conditions: po, procedure of WO 94/04533, read-out: ID50 (the source's name). The text has this: Reversal of MCPP-induced Hypolocomotion

What is called melting point is the temperature of the solid-liquid transition. `CSc1cc2c(cc1C(F)(F)F)N(C(=O)Nc1cccc(-c3cccnc3)c1)CC2` [Example 3, 1-[(3-Pyridyl)-3-phenyl Carbamoyl]-5-methylthio-6-trifluoromethyl Indoline] came in with a melting point of 208 to 210 °C. Moreover, the ED50 in series [1] was 0.5 to 5.5 mg/kg.
In the case of `CSc1cc2c(cc1C(F)(F)F)N(C(=O)Nc1ccc(C)c(-c3cccnc3)c1)CC2` [Example 24, 1-(4-Methyl-3-(pyrid-3-yl)phenylcarbamoyl)-5-thiomethyl-6-trifluoromethyl Indoline], the melting point lay within 221 to 223 °C. For the same molecule, the ED50 in series [1] was in the range of 0.5 to 5.5 mg/kg.
The corresponding values for `COc1cc2c(cc1C(F)(F)F)N(C(=O)Nc1ccc(Oc3cccnc3)nc1)CC2` [Example 53, 5-Methoxy-6-trifluoromethyl-1-[6(pyridin-3-yloxy)pyridin-3-ylcarbamoyl]indoline] are 202 to 204 °C and 0.5 to 5.5 mg/kg.
On the same counts, the results for `COc1cc2c(cc1C(F)(F)F)N(C(=O)Nc1ccc(F)c(-c3cccnc3)c1)CC2` [Example 77, 1-[4-Fluoro-3-(3-pyridyl)phenylcarbamoyl]-5-methoxy-6-trifluoromethyl Indoline] are 210 to 212 °C and 0.5 to 5.5 mg/kg.
As for `CSc1cc2c(cc1C(F)(F)F)N(C(=O)Nc1ccc(Oc3cccnc3)nc1)CC2` [Example 52], the melting point was 193 to 194 °C. In addition, the ED50 in series [1] lay within 0.5 to 5.5 mg/kg.
The corresponding values for `CCc1cc(NC(=O)N2CCc3cc(OC)c(C(F)(F)F)cc32)cc(-c2cccnc2)c1` [Example 42, 1-[5-Ethyl-3-(pyrid-3-yl)phenylcarbamoyl]-5-methoxy-6-trifluoromethylindoline] are 205 to 207 °C and 0.5 to 5.5 mg/kg.
On the same counts, the results for `COc1cc2c(cc1C(F)(F)F)N(C(=O)Nc1ccc(OCc3ccncc3)nc1)CC2` [Example 55, 5-Methoxy-6-trifluoromethyl-1-[6-(pyridin-4-ylmethyloxy)pyridin-3-ylcarbamoyl]indoline] are 187 to 189 °C and 0.5 to 5.5 mg/kg.
`COc1cc2c(cc1C(F)(F)F)N(C(=O)Nc1cc(F)cc(-c3cnccc3C)c1)CC2` [Example 21, 1-(3-Fluoro5-(4-methyl-3-pyridyl)phenylcarbamoyl)-5-methoxy-6-trifluoromethylindoline] had a melting point of 191 to 195 °C. For the same molecule, in series [1], the ED50 was 0.5 to 5.5 mg/kg.
On the same counts, the results for `COc1cc2c(cc1C(F)(F)F)N(C(=O)Nc1ccc(Oc3cccnc3C)nc1)CC2` [Example 81, 5-Methoxy-6-trifluoromethyl-1-[6-(2-methylpyridin-3-yloxy)pyridin-3-ylcarbamoyl]indoline] are 227 to 230 °C and 0.5 to 5.5 mg/kg.

The record behind these values is patent US6638953B2, “Indole derivatives as 5-HT receptor antagonist” (SmithKline Beecham p.l.c., priority 1995, dated 2003).
